Source: US20230027066A1 (Urovant Sciences GmbH, priority 2019, published 2023)
Read-outs that look alike come from different tables or passages of the source.

Assays:
CYP2D6 = CYP2D6 (Homo sapiens, UniProt P10635); assay: drug interaction study of vibegron and metoprolol succinate (moderately sensitive CYP2D6 substrate); assay type: in vivo; set-up: from tissue; host or cells: in vivo, healthy adult human subjects (endogenous enzyme)
[1] = QT Study/Label April 2018, cited from earlier work
[2] = human, plasma, metoprolol 100 mg alone
[3] = metoprolol 100 mg, vibegron 75 mg
[4] = 50 mg repeat-dose, healthy subjects

Sequence of CYP2D6 (P10635 whole entry): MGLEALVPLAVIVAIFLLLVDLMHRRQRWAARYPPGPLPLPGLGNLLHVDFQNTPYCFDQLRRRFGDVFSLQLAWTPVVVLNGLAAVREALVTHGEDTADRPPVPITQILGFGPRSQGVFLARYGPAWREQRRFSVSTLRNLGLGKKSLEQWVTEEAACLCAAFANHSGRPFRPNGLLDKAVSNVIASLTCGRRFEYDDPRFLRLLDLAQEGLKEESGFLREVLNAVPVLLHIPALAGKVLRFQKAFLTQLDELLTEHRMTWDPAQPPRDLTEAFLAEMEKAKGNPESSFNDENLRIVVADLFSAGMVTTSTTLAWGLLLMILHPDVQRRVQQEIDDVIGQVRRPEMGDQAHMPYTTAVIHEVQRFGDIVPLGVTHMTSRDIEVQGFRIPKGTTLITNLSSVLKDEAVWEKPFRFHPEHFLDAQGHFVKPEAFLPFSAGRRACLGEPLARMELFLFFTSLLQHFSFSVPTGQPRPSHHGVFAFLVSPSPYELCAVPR

Row | AUC(0-inf) (CYP2D6; [2]) [ng·h/mL] | Cmax (CYP2D6; [2]) [ng/mL] | half-life (CYP2D6; human, plasma, metoprolol 100 mg alone, read-out: t1/2, GM (% CV) (converted)) [h] | AUC0-∞, ratio of GLS mean metoprolol + vibegron/metoprolol alone (CYP2D6; [3]) | Cmax, ratio of GLS mean metoprolol + vibegron/metoprolol alone (CYP2D6; [3]) | Compound | SBP change 24-hour average, placebo adjusted [1, 4] | SBP change Maximum mean, placebo adjusted [1, 4] | SBP change 24-hour average, placebo adjusted ([1]; 100 mg repeat-dose, healthy subjects) | SBP change 24-hour average, placebo adjusted ([1]; 200 mg repeat-dose, healthy subjects) | HR change Maximum mean, placebo adjusted ([1]; first of doses 50, 100, 200 mg repeat-dose (doses from the Doses line)) [bpm] | HR change Maximum mean, placebo adjusted ([1]; second of doses 50, 100, 200 mg repeat-dose (doses from the Doses line)) [bpm] | HR change Maximum mean, placebo adjusted ([1]; third of doses 50, 100, 200 mg repeat-dose (doses from the Doses line)) [bpm]
1 | 384 | 21.9 | 9.5 | 1.40 | 1.49 | COCCc1ccc(OCC(O)CNC(C)C)cc1 (stereo not drawn) [Metoprolol, metoprolol succinate] |  |  |  |  |  |  | 
2 |  |  |  |  |  | Nc1nc(CC(=O)Nc2ccc(CCNC[C@H](O)c3ccccc3)cc2)cs1 [Mirabegron, mirabegron] | +3.0 mmHg | Maximum mean +4.0 mmHg | +5.5 mmHg | +9.7 mmHg | 6.7 | 11 | 17
